According to article PMC11325505, “Nitrogen-Containing Flavonoids—Preparation and Biological Activity” (ACS Omega, 2024):
In brackets after ≈: the same amount, converted by molar mass.

Experiments:
[1] = system: tumor necrosis factor (TNF-α) production by RAW 264.7 stimulated by LPS; experiment: Anti-inflammatory activity: TNF-α production by LPS-stimulated macrophages; assay type: cell-based, Murine; conditions: Mus musculus, RAW264.7; LPS-stimulated RAW 264.7; average of four repetitions ± SEM; read-out: TNFα production IC50
Protocol: (§1) The anti-inflammatory activity of flavonoids was evaluated as their ability to decrease the production of signaling molecules that mediate inflammation, such as nitric oxide (NO), tumor necrosis factor (TNF-α), and interleukin 6 (IL-6), in LPS-stimulated macrophages.
(§2) The anti-inflammatory activity of the tested flavonoids was determined as the ability to reduce the production of nitric oxide (NO), tumor necrosis factor (TNF-α), and interleukin 6 (IL-6) by RAW 264.7 stimulated by LPS, as previously described.[39],[40] Briefly, 1 × 10^6 cells/mL was seeded into the 96-well plate (100 μL/well). After 48 h, LPS (100 ng/mL) and the samples (3–100 μM) were added to the MEM medium. After 24 h, the medium was mixed with Griess reagent (0.04 g/mL) at a 1:1 ratio. The absorbance was measured after 15 min at 540 nm. Cell viability was determined using the resazurin assay.
To determine TNF-α levels, cells were precultivated with the tested compounds for 24 h. After 2 h of incubation with LPS, the medium was diluted 1:10 with ELISA diluent. To determine the level of IL-6, cells were cultivated for 6 h with LPS and the tested compounds. Cytokine production was determined using an uncoated ELISA performed according to the manufacturer’s instructions.

S. aureus MRSA 9 = experiment: Antibacterial activity, multidrug-resistant strain; assay type: cell-based; conditions: Staphylococcus aureus, MRSA; multidrug-resistant strain; three repetitions ± SEM
Protocol: To evaluate the ability to modulate bacterial resistance, the tested flavonoids themselves cannot exert antimicrobial activity; therefore, the nontoxic concentration was used, as indicated in Table S5. Clinically relevant antibiotics were selected at breakpoint concentrations for susceptibility testing according to the European Committee on Antimicrobial Susceptibility Testing (EUCAST, version 11.0). […] Flavonoids and their derivatives (from 1 μM to the highest nontoxic concentration) were used in combination with the breakpoint concentration of the antibiotics. After coincubation, the minimum inhibitory concentration (MIC) of flavonoids inhibiting the visible growth of bacteria was determined (Table 2).
(§3) Sensitization of multidrug-resistant clinical bacterial strains was performed according to ref[15]. Antibiotic cutoff concentration was chosen according to the European Committee on Antimicrobial Susceptibility Testing (EUCAST, Clinical breakpoints–bacteria, ver. 11.0). The 200 μM concentration of the derivatives was chosen as the highest test concentration. The absorbance detected at 600 nm was then used to estimate the number of viable cells after 24 h of incubation at 37 °C and 120 rpm.
(§4) Experiments were performed with the respective number of replicates indicated in each figure/table. MIC was determined as IC70. Both IC70 and IC50 values were calculated using the following nonlinear regression in the software GraphPad Prism: […]

RAW 264.7 cells = experiment: Cellular antioxidant activity (CAA); assay type: cell-based, Murine; conditions: for IC50: average of four repetitions ± standard error of the mean; for change of antioxidant activity compared to the parent compound, in words: CAA in macrophages
Protocol: To evaluate the antioxidant activity of the prepared derivatives and the respective parent compounds, cellular antioxidant activity (CAA) was measured in macrophages. Compared to other in vitro antioxidant assays, this method provides partial information about the uptake and metabolism of the compounds, because, in this assay, they must first enter the cell to exert antioxidant activity.[31] […] Derivatization of quercetin at C-8 with 4-fluoroaniline (5) increased the antioxidant activity of quercetin by 1.7-fold. […] The concentration of these derivatives required to halve the cellular radicals decreased 1.5-fold compared to luteolin.
Cellular antioxidant capacity was evaluated as previously described.[31],[39] Briefly, 100 μL of RAW 264.7 cells with a density corresponding to 1 × 10^6 cells/mL were split into 96-well plates. After 24 h, cells were washed with PBS, and DMEM supplemented with DCFH-DA (0.0125 mg/mL) was added to each well together with the tested samples in the concentration range of 1.5–200 μM. After 1 h incubation in a CO2 incubator, the medium was replaced with AAPH solution (0.16 mg/mL in PBS), and fluorescence was immediately recorded (ex./em. 485/540 nm) for 2 h in 5 min intervals.

[2] = system: nitric oxide (NO) production by RAW 264.7 stimulated by LPS; experiment: Anti-inflammatory activity: NO production by LPS-stimulated macrophages; assay type: cell-based, Murine; conditions: Mus musculus, RAW264.7; LPS-stimulated RAW 264.7; average of four repetitions ± SEM
Protocol: as §1, §2

MRSA 1584 = experiment: Mode of antimicrobial action with gentamicin, aac(6')/aph(2')-positive strain; assay type: cell-based, Staphylococcus aureus; conditions: for effect (mode of action with gentamicin) / FIC (Fractional Inhibitory Concentration Index) / MIC: MRSA 1584; for MIC, Gentamicin [1 mg/L] yes: MRSA 1584 (aac(6')/aph(2')), with gentamicin 1 mg/L; for FIC (Fractional Inhibitory Concentration Index): with gentamicin; for MIC: Staphylococcus aureus, 24 h, read-out: MIC, Gentamicin [1 mg/L] no, without gentamicin
Source text: Among the mechanisms of resistance to gentamicin previously described in S. aureus, the presence of enzymes that alter the structure of aminoglycosides is crucial. These enzymes can transfer nucleotides, phosphates, or acetyls to various −OH or −NH2 groups of gentamicin, preventing its subsequent interaction with the cellular target, i.e., the 30S ribosomal subunit. The bifunctional aminoglycoside-modifying enzyme with acetylation and phosphotransferase activities encoded by the gene aac(6’)/aph(2’), 4′,4″ adenyltransferase encoded by the aadD gene, and aminoglycoside O-phosphotransferase encoded by the gene aph(3′) are the most important.[37] […] For this reason, further testing continued using strains MRSA 3596 and MRSA 1584, which inactivate gentamicin only by a single mechanism (aadD and aac(6’)-aph(2’’), respectively).
as §3, §4

[3] = system: Methicilin-Resistant S. aureus 331 Strain; experiment: Mode of antimicrobial action with erythromycin, ermC-positive strain; assay type: cell-based; conditions: for MIC, erythromycin [1 mg/L] yes / MIC, erythromycin [1 mg/L] no: MRSA 331 (ermC); for MIC, erythromycin [1 mg/L] yes: with erythromycin 1 mg/L; for MIC, erythromycin [1 mg/L] no: without erythromycin; for FIC (Fractional Inhibitory Concentration Index): with erythromycin
Source text: Erythromycin is a macrolide antibiotic that inhibits proteosynthesis by binding to the 50S subunit of the ribosome. In Staphylococcus species, resistance to erythromycin is associated with the presence of methyltransferases (encoded by erm genes) that alter the ribosomal target site. Another typical mechanism of resistance to erythromycin is the presence of an ATP-dependent efflux pump encoded by the msr(A) gene or a major facilitator superfamily (MFS) pump encoded by the lmrS gene. Both efflux pumps reduce the concentration of erythromycin in the cell below the therapeutic dose by transporting it across the membrane to the extracellular space. Another erythromycin resistance gene is the mph(C) gene, the product of which is a phosphotransferase that alters the structure of macrolide antibiotics. To elucidate the mechanism of erythromycin resistance modulation in S. aureus, further tests were performed with the strains MRSA 331 and MRSA 3596, which inactivate erythromycin via a single mechanism (ermC and ermA, respectively). […] Therefore, if the activity was not strain-specific, it would be necessary to consider the effect of the derivatives on this pump (Table 3).
as §3, §4

[4] = Mus musculus, RAW264.7, macrophages RAW 264.7

| SMILES | IC50 [1] | IC50 (S. aureus MRSA 9) | IC50 (RAW 264.7 cells; [4]) | IC50 [2] | effect (mode of action with gentamicin) (MRSA 1584) | MIC, Gentamicin [1 mg/L] yes (MRSA 1584) | FIC (Fractional Inhibitory Concentration Index) (MRSA 1584) | MIC (MRSA 1584) | MIC, erythromycin [1 mg/L] yes [3] | MIC, erythromycin [1 mg/L] no [3] | FIC (Fractional Inhibitory Concentration Index) ([3]; MRSA 331) | change of antioxidant activity compared to the parent compound, in words (RAW 264.7 cells) | IC50 (RAW 264.7 cells; macrophages RAW 264.7) | effect (mode of action with erythromycin) ([3]; MRSA 331) |
| --- | --- | --- | --- | --- | --- | --- | --- | --- | --- | --- | --- | --- | --- | --- |
| O=c1c(O)c(-c2ccc(O)c(O)c2)oc2c(Nc3ccc(F)cc3)c(O)cc(O)c12 [compound 5, 2-(3,4-Dihydroxyphenyl)-8-(4-fluoroanilino)-3,5,7-trihydroxy-4H–1-benzopyran-4-one] | > 50 µM | 60.7 ± 2.4 µM | 3.4 ± 0.2 µM | 37.4 ± 1.6 µM | additive (> 0.5-1 indicates additive effects) | 28.2 ± 0.5 µM (≈ 11.6 µg/mL) | 0.97 ± 0.02 | 29.2 ± 0.1 µM (≈ 12 µg/mL) | – | – | – | – | – | – |
| O=c1cc(-c2ccc(O)c(O)c2)oc2c(Nc3ccc(C(F)(F)F)cc3)c(O)cc(O)c12 [compound 14, 2-(3,4-Dihydroxyphenyl)-8-(4-(trifluoromethyl)anilino)-5,7-dihydroxy-4H–1-benzopyran-4-one] | > 25 µM | 24 ± 0.1 µM | > 12.5 µM | > 25 µM | indifferent (> 1 to < 2 indicates indifference) | 26.1 ± 1.6 µM (≈ 11.6 µg/mL) | 1.71 ± 0.26 | 15.3 ± 1.3 µM (≈ 6.81 µg/mL) | 27.0 ± 1.5 µM (≈ 12 µg/mL) | 27.0 ± 5.1 µM (≈ 12 µg/mL) | 1.00 ± 0.25 | significantly decreased the antioxidant activity | – | – |
| O=c1cc(-c2ccc(O)c(O)c2)oc2c(Nc3ccccc3)c(O)cc(O)c12 [compound 13, 2-(3,4-Dihydroxyphenyl)-8-(anilino)-5,7-dihydroxy-4H–1-benzopyran-4-one] | > 25 µM | 51.3 ± 1.3 µM | 3.1 ± 0.1 µM | 29.3 ± 0.1 µM | additive (> 0.5-1 indicates additive effects) | 49.9 ± 8.1 µM (≈ 18.8 µg/mL) | 0.70 ± 0.12 | 70.9 ± 0.3 µM (≈ 26.8 µg/mL) | – | – | – | – | – | – |
| O=c1cc(-c2ccc(O)c(O)c2)oc2cc(O)cc(O)c12 [compound 10, luteolin, reference compound] | 25.9 ± 0.3 µM | > 200 µM | 4.5 ± 0.5 µM | 13.3 ± 0.2 µM | additive (> 0.5-1 indicates additive effects) | 7.6 ± 1.0 µM (≈ 2.18 µg/mL) | 0.50 ± 0.11 | 15.2 ± 1.4 µM (≈ 4.35 µg/mL) | 31.6 ± 2.5 µM (≈ 9.05 µg/mL) | 28.1 ± 0.3 µM (≈ 8.04 µg/mL) | 1.12 ± 0.10 | – | 4.48 µM | – |
| O=c1c(O)c(-c2ccc(O)c(O)c2)oc2c(Nc3ccc(C(F)(F)F)cc3)c(O)cc(O)c12 [compound 8, 2-(3,4-Dihydroxyphenyl)-8-(4-(trifluoromethyl)anilino)-3,5,7-trihydroxy-4H–1-benzopyran-4-one] | > 50 µM | 35.3 ± 0.7 µM | 11.5 ± 0.3 µM | 53.3 ± 0.8 µM | additive (> 0.5-1 indicates additive effects) | 23.9 ± 0.1 µM (≈ 11 µg/mL) | – | 24.5 ± 0.4 µM (≈ 11.3 µg/mL) | 15.9 ± 0.8 µM (≈ 7.34 µg/mL) | 6.9 ± 0.2 µM (≈ 3.18 µg/mL) | – | significantly decreased the antioxidant activity | – | antagonism (≥2 indicates antagonism) |
| O=c1cc(-c2ccc(O)c(O)c2)oc2c(Nc3cccc(F)c3)c(O)cc(O)c12 [compound 15, 2-(3,4-Dihydroxyphenyl)-8-(3-fluoroanilino)-5,7-dihydroxy-4H–1-benzopyran-4-one] | > 25 µM | 56.9 ± 1.9 µM | 6.7 ± 0.2 µM | 31.8 ± 0.9 µM | additive (> 0.5-1 indicates additive effects) | 27.6 ± 0.5 µM (≈ 10.9 µg/mL) | 0.96 ± 0.02 | 28.6 ± 0.1 µM (≈ 11.3 µg/mL) | – | – | – | significantly decreased the antioxidant activity | – | – |
| O=c1c(O)c(-c2ccc(O)c(O)c2)oc2cc(O)cc(O)c12 [compound 4, quercetin, reference compound] | 55.1 ± 2.1 µM | > 200 µM | 5.9 ± 0.4 µM | 9.3 ± 0.6 µM | additive (> 0.5-1 indicates additive effects) | 55.6 ± 1.1 µM (≈ 16.8 µg/mL) | 0.63 ± 0.01 | 88.6 ± 0.3 µM (≈ 26.8 µg/mL) | 190.9 ± 0.5 µM (≈ 57.7 µg/mL) | 193.1 ± 1.0 µM (≈ 58.4 µg/mL) | 0.99 ± 0.01 | – | 5.85 µM | – |
| COc1ccc(Nc2c(O)cc(O)c3c(=O)cc(-c4ccc(O)c(O)c4)oc23)cc1 [compound 12, 2-(3,4-Dihydroxyphenyl)-8-(4-methoxyanilino)-5,7-dihydroxy-4H–1-benzopyran-4-one] | > 50 µM | 112 ± 1.2 µM | 3.4 ± 0.1 µM | 48.3 ± 1.3 µM | additive (> 0.5-1 indicates additive effects) | 47.1 ± 0.8 µM (≈ 19.2 µg/mL) | 0.65 ± 0.03 | 72.9 ± 2.4 µM (≈ 29.7 µg/mL) | 54.8 ± 0.4 µM (≈ 22.3 µg/mL) | 54.4 ± 2.1 µM (≈ 22.2 µg/mL) | 1.01 ± 0.05 | – | – | – |
